Measurements taken from US20230129866A1 (PureTech LYT 100, Inc., priority 2020, published 2023).

Legend:
[1] = human, in vivo, po
Excerpt: Following screening, eligible healthy volunteer subjects were admitted to a single clinical study site and were randomized to 1 of 2 treatment sequences. […] In each period, a standardized breakfast was provided to subjects prior to administration of study drug (to compare the PK profiles in the clinically relevant fed state) and plasma samples were collected over a 48-hour period after dosing for evaluation of PK. Dosing between the 2 periods was separated by a minimum of 7 days. Subjects completed the study upon completion of the 48-hour post-dose assessments following dosing period 2.
All capsules were identical in size, shape, and external color.

[2] = tested on: L929 cells; assay: TGF-induced soluble fibronectin synthesis in L929 cells (ELISA); assay type: cell-based; details: 500 μM; FIG. 4E
Protocol: Five thousand L929 cells were plated in complete DMEN and incubated until confluency for 3 days.
Fibronectin is another important component of fibrotic lungs as it is induced by TGF-β and functions both as a structural component of extra cellular matrix as well as well as a ligand for integrin receptors. Just like soluble collagen, binding of fibronectin to integrin receptors induces the proliferation of fibroblast and epithelial cells of the lungs.

[3] = rat, in vivo
Protocol: The original male TK animals received 1000 mg/kg of SD-559 on Day 1 and continued on study. The protocol was amended to add additional TK male animals in Group 6 for Day 1 collection of TK samples at 875 mg/kg.
Blood samples were collected from 3 subsets of 3 animals/sex on Day 1 and Day 28 at pre-dose, 0.25, 0.5, 1, 2, 4. 8 and 24 hours (hr) post-dose for groups 2 to 6 and from one subset of 3 animals/sex at 0.25 hr post-dose for the vehicle group (group 1). […] Non-compartmental analysis (NCA) of plasma concentration data was conducted using Phoenix® WinNonlin®, version 8.0.

[4] = tested on: L929 cells; assay: TGF-induced collagen synthesis in L929 cells, 96-well plate format (SIRCOL); assay type: cell-based; details: 72 hrs, FIG. 4C
Protocol: Five thousand L929 cells were plated in complete DMEN and incubated until confluency for 3 days. Medium was removed and complete DMEM containg Prolin (20 μg/ml) and ascorbic acid (10 μM) was added. […] Cells were further incubated for 72 hrs. Supernatant was removed, 0.5% glutaraldehyde was added for 30 min at RT, removed, washed 3× with ddwater, 0.5 M acetic acid was added for 30 min at RT, removed, washed with water, air dried and 100 μl SIRCOL dye was added for 5 h at RT. Dye was removed, plate was washed extensively under running water, air dried and 200 μl of 0.5 M NaOH was added, plates were shaken at RT for 1 h, and OD was determined at 600 nm.

[5] = tested on: L929 cells; assay: Survival of L929 cells (MTT); assay type: cell-based; details: 500 μM, TGFb 5 ng/ml, 72 hrs, FIG. 4A
Protocol: Five thousand L929 cells were plated in completed DMEN and incubated until confluency for 3 days. Medium was removed and complete DMEM containg Prolin (20 μg/ml) and ascorbic acid (10 μM) was added. […] 100 μL of medium was removed, 20 μL MTT solution was added for 4 hrs, then 100 μl of DMSO was added, and absorbance of developed dark pink color was determined at […].

For `[2H]C([2H])([2H])c1ccc(=O)n(-c2ccccc2)c1` [LYT-100, 5-(methyl-d3)-1-phenylpyridin-2-(1H)-one], the “Tolerability of single doses” value [1] was “well tolerated”, the “Effect on soluble fibronectin levels, in the absence and presence of TGF-β-induction” value [2] was “signficantly reduced” and the “Accumulation after multiple dosing for 28 Days” value [3] was “No accumulation”. For the same compound, the “Effect on TGF-β-induced total collagen levels” value ([4]; 500 μM 1 h prior to TGF-β 5 ng/ml) was “inhibited or reduced”, the “Effect on total collagen level in the absence of TGF-β induction” value ([4]; 500 μM) was “signficantly inhibited or reduced” and the “Effect on survival of L929 cells” value [5] was “does not affect survival”.
